{"source": "patent US12486298B2", "about": "“Fucosyltransferase specific inhibition using fucose mimetics” (THE FLORIDA INTERNATIONAL UNIVERSITY BOARD OF TRUSTEES, priority 2020, dated 2025)", "key": {"[1]": {"biological_target": "T1, fucosyltransferase VII (FTVII) (Homo sapiens, UniProt Q11130)", "T1 sequence (Q11130 37-342 limits assumed)": "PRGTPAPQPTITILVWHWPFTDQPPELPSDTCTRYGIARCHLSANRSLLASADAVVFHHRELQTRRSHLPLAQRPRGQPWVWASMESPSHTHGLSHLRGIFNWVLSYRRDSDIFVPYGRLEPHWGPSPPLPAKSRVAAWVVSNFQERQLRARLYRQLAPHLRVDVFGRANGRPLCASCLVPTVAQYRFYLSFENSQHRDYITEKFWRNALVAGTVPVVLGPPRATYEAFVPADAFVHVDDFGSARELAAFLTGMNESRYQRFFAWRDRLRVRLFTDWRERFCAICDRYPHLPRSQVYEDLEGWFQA", "experiment": "FTVII exofucosylation of RPMI-8402 cells, sLe^x by flow cytometry", "format": "cell-based", "protocol": "(§1) A Canto II (BD Biosciences) flow cytometer was utilized for flow cytometry and the data acquired was analyzed using FlowJo Software (Treestar). Cells were stained using antibodies specific to sLe^X (Alexa-Fluor 488 Mouse Anti-Human CD15s (BD Biosciences)), or Le^X (APC anti-human CD15 (SSEA-1) Antibody (BioLegend)).\n(§2) Cells of the RPMI-8402 cell line and MSC cell line were treated with either 0.3 ug of fucosyltransferase VI (FTVI), 2.7 ug of fucosyltransferase VII (FTVII), 1.0 ug fucosyltransferase IX (FTIX) or buffer-only at 37° C. for 60 minutes. All reactions contained at 1×10^6 cells/30 ul in HBSS with 10 mM Hepes, 0.1% Human Serum Albumin, and 1.0 mM GDP fucose (GDP-Fuc) (Carbosynth) and the appropriate fucosytransferase. Then, mimetic 1 was added to each of the treatment groups in molar equivalents with respect to GDP-Fuc with each of the fucosytransferases. The treatment groups were as follows: 1:1 GDP-Fuc to mimetic 1 (i.e., 1.0 mM GDP-Fuc and 1.0 mM mimetic), 1:2 GDP-Fuc to mimetic 1 (i.e., 1.0 mM GDP-Fuc and 2.0 mM mimetic), or preincubated in presence of FT with a 2.0 mM solution of the mimetic 1 for 45 minutes followed by addition of a 1.0 mM solution of GDP-Fuc for 1 hour. Concentrations of the various FTs were utilized that would maximize the MFI to allow the detection of the efficacy of mimetic 1 to inhibit the various enzymes.\n(§3) Exofucosylation is a technique whereby a pertinent FT together with GDP-Fuc is placed in a cell suspension to stereoselectively install fucose on pertinent acceptor cell surface glycan(s). For the case of α-1,3-FTs, this approach provides the ability to pinpoint the effect(s) of mimetic addition on creation of fucosylated glycans Le^x and sLe^x, while keeping the rest of the cell's biological functions and its viability intact. Specifically, this study focused on three α-1,3-FTs that can create sLe^x and Le^x determinants: FTVII, FTIX, and FTVI. To assess enzymatic activity, two cell types were utilized, the human lymphoblastic leukemia cell line RPMI-8402 and human mesenchymal stem cells (MSCs).\nMimetic 1 (FIG. 1) was tested as an inhibitor of FT-mediated exofucosylation on these cells and the extent of fucosylation was monitored using antibodies that detect the creation of the relevant fucosylated epitopes, i.e., sLe^x or Le^x. Cells were treated directly with reaction buffer containing the relevant FTs together with 1.0 mM GDP-Fuc and cells untreated with FTs (UT) were used as reference reaction negative control (FIGS. 2A, 2B, 2C, 3, 4A and 4B). […]\nMoreover, a pre-incubation protocol was also analyzed, wherein the cell suspension was pre-treated with FTVII and a 2.0 mM solution of mimetic 1 followed by addition of 1.0 mM solution of GDP-Fuc (Pre)."}, "[2]": {"biological_target": "T2, fucosyltransferase VI (FTVI) (Homo sapiens, UniProt P51993)", "T2 construct": "purchased R&D systems", "T2 sequence (P51993 35-359 limits assumed)": "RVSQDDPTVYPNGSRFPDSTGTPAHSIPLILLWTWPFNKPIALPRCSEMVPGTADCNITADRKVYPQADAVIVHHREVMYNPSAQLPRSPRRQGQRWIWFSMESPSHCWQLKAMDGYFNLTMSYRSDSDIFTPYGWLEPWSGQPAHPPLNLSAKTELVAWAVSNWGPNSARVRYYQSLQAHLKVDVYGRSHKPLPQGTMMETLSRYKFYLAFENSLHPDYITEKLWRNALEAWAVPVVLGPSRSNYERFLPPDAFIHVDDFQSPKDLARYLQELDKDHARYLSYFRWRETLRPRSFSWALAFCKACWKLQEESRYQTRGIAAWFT", "experiment": "FTVI exofucosylation of RPMI-8402 cells, sLe^x and Le^x by flow cytometry", "format": "cell-based", "protocol": "A titration of GDP-Fucose was carried out to determine the maximum mean fluorescent intensity (MFI) of sLe^X and Le^X via flow cytometry for downstream inhibition experiments. Generally, 1×10^6 cells were used in each FTVI exofucosylation reaction and all reactions were carried out in triplicate. Cells were then stained with either Alexa-Fluor 488 Mouse Anti-Human CD15s (BD Biosciences), or APC anti-human CD15 (SSEA-1) Antibody (BioLegend). Cells were then acquired on a Canto II (BD Biosciences) flow cytometer and analylized using Flowjo software (Treestar). FTVI was purchased from R&D systems.\nas §1, §2\nas §3, with “To assess enzymatic activity, two cell types were utilized, the human lymphoblastic leukemia cell line RPMI-8402 and human mesenchymal stem cells (MSCs).” left out\nMimetic 1 (FIG. 1) was tested as an inhibitor of FT-mediated exofucosylation on these cells and the extent of fucosylation was monitored using antibodies that detect the creation of the relevant fucosylated epitopes, i.e., sLe^x or Le^x. […]"}, "[3]": {"conditions": "RPMI-8402 cells, 1.0 mM GDP-Fuc with 1.0 mM or 2.0 mM mimetic 1"}, "[4]": {"conditions": "titration of mimetic 1, 1.0 mM GDP-Fuc, RPMI-8402 cells, bell-shaped curve"}}, "note": "Entries after “also recorded” stand apart in the source; their conditions may differ.", "data": [{"compound": "CC1OC2Oc3ccc(CC(=O)O)cc3SC2C(O)C1O", "note": "(centres unmarked) [mimetic 1]", "values": [{"measurement": "inhibition of FTVII-driven sLe^x expression", "setting": "[1]; [3]", "result": "able to inhibit FTVII-driven sLe^x expression"}, {"measurement": "extent of inhibition, FTVII compared with FTVI", "setting": "[1]; at 2.0 mM mimetic 1, 1.0 mM GDP-Fuc", "result": "slightly higher extent of inhibition on FTVII over FTVI"}, {"measurement": "inhibition of FTVII sLe^x production after pre-incubation", "setting": "[1]; pre-incubation of FTVII with 2.0 mM mimetic 1 for 45 minutes, then 1.0 mM GDP-Fuc for 1 hour", "result": "significant inhibition of sLe^x production; also recorded: inhibited more completely"}, {"measurement": "concentration of highest inhibition against FTVII", "setting": "[1]; [4]", "result": 2.0, "unit": "mM"}, {"measurement": "inhibition of FTVI production of Le^x", "setting": "[2]; [3]", "result": "clearly inhibited"}, {"measurement": "inhibition of FTVI production of sLe^x", "setting": "[2]; [3]", "result": "markedly diminished"}, {"measurement": "inhibition of FTVI-mediated exofucosylation after pre-incubation", "setting": "[2]; pre-incubation with 2.0 mM mimetic 1 prior to addition of GDP-Fuc", "result": "inhibited more completely"}, {"measurement": "concentration of highest inhibition against FTVI", "setting": "[2]; [4]", "result": 2.0, "unit": "mM"}]}]}
